This is an account of results in ChEMBL document CHEMBL5604062, “ASAP - ZIKV NS2B-NS3 protease fluorescence dose response” (2024).

By IC50 is commonly meant the concentration at which inhibition is half-maximal.

Where “and” joins values, the source holds several entries; their conditions need not be identical. Equal values may be shown once. Bounds are passed on as bounds.

The assay concerns the target Nonstructural protein 3 (Zika virus, UniProt A0A024AXB9). Briefly: Functional biochemical assay to identify treatments for viral infectious disease that targets Zika NS2B-NS3 protease. Utilizing a direct enzyme activity measurement method, reading the fluorescence intensity is used to characterize the relative potency of inhibitors as IC50. More on the design: species or system PRVABC59.

Nonstructural protein 3, sequence (A0A024AXB9 whole entry): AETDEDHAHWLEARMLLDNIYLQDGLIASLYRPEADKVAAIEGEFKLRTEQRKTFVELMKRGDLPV

`O=C(Nc1ccc2c(c1)CNC2)c1cccc(-c2cnco2)c1` gave an IC50 of 1830 nM.

The compound `COCCOc1ccc(Cl)cc1C(=O)Nc1ccc2c(c1)CNC2` displayed an IC50 of 3060 nM.

As to `O=C(Nc1ccc2c(c1)CNC2)N1C[C@H](C2CC2)C[C@@H]1C1CC1`, the concentration for half-maximal inhibition (IC50) was above 25000 nM.

In turn, `O=C(NCc1ccc2c(c1)CCNC2)c1cc(Cl)cc2[nH]ncc12` displayed an IC50 of 23200 nM.

Take `Cc1nc2cc(Cl)ccc2cc1C(=O)Nc1ccc2c(c1)CNC2`: the IC50 was above 25000 nM.

Turning to `C[C@H]1C[C@H](c2cccc(CN)c2)[C@@H](c2cc(Cl)cc(NC(=O)OCc3ccccc3)c2)C1`, half-maximal inhibition (IC50) required 15000 nM.

On to `Cn1ncc(C(=O)Nc2cc(CCCN)ccn2)c1O`, for which the IC50 was above 25000 nM.

Compound `O=C1Cc2c(cccc2C(=O)Nc2ccc3c(c2)C(=O)OC3)N1` came in with an IC50 above 25000 nM.

`C[C@H]1Oc2c(cccc2C(=O)Nc2ccc3c(c2)CNC3)NC1=O`: the IC50 turned out to be 1130 nM. That is a single-digit micromolar value.

`O=C(Nc1ccc2c(c1)CNC2)c1cc(Br)cc2[nH]c(C3CCOCC3)nc12` came in with an IC50 of 590 nM.

`CC(C)(C)O[C@H]1CCCN(C(=O)Nc2ccc3c(c2)CNC3)C1` had an IC50 above 25000 nM.

In the case of `Cc1ccc2cc(Cl)cc(C(=O)Nc3ccc4c(c3)CNC4)c2n1`, the IC50 came to 866 nM. In other words, the sub-micromolar range.

`N#C[C@H](Nc1ccc2c(c1)CNC2)c1ccnc(C(F)(F)F)c1` had an IC50 above 25000 nM.

Compound `C#Cc1ccnc(NC(=O)c2cc(C3CC3)n(C)c2C)c1` displayed an IC50 above 25000 nM.

Take `O=C(Nc1ccc2c(c1)CNC2)N1CCC[C@](O)(c2ccccc2)C1`: the IC50 is above 25000 nM.

In turn, `O=C1CCN(c2cc(Cl)cc(C(=O)Nc3ccc4c(c3)CNC4)c2)C(=O)N1` came in with an IC50 of 1230 nM. That is a single-digit micromolar value.

As for `CCN(CC)C[C@H]1CCCN(C(=O)Nc2ccc3c(c2)CNC3)C1`, the half-maximal inhibitory concentration (IC50) was above 25000 nM.

Consider `Cn1ncc2c(C(=O)Nc3ccc4c(c3)CNC4)cc(C3CC3)nc21`, for which the IC50 was found to be 5070 nM.

In the case of `O=C(Nc1ccc2c(c1)CNC2)c1cc(Cl)cc2ccncc12`, the IC50 was 79 nM and 70 nM.

`C[C@H]1CC2(CN1C(=O)Nc1ccc3c(c1)CNC3)CC(F)(F)C2` had an IC50 above 25000 nM.

Take `O=C(Nc1ccc2c(c1)CNC2)N1CC[C@H](CC(F)(F)F)C1`: the IC50 is above 25000 nM.

`CC(C)NC(=O)[C@H](Nc1ccc2c(c1)C(=O)OC2)c1cc(Cl)cc2[nH]ncc12` registered an IC50 above 25000 nM.

For the compound `O=C1Cc2c(cc(Br)cc2C(=O)Nc2ccc3c(c2)CNC3)N1`, the IC50 is 21 nM and 20 nM.

With `O=C(Nc1ccc2c(c1)CNC2)c1cc(Cl)cc2cn[nH]c12`, the IC50 is 47 nM and 42 nM.

Turning to `Cc1c[nH]c2ncnc(C(=O)Nc3ccc4c(c3)CNC4)c12`, the IC50 is above 25000 nM.

For `O=C(Nc1ccc2c(c1)CNC2)[C@H]1C[C@@H]1c1ccccc1`, the IC50 was above 25000 nM.

`Nc1noc2cccc(C(=O)Nc3ccc4c(c3)CNC4)c12`: the IC50 stood at 977 nM.

On to `O=C(Cc1ccc2ncsc2c1)Nc1ccc2c(c1)CNC2`, for which the IC50 is above 25000 nM.

On to `CS(=O)(=O)Nc1cccc(C(=O)Nc2ccc3c(c2)CNC3)c1`, for which half-maximal inhibition (IC50) was put at 12800 nM.

In turn, `Clc1cc([C@H](C#Cc2ccccc2)Nc2ccc3c(c2)CNC3)c2cn[nH]c2c1` returned a concentration for half-maximal inhibition (IC50) of 1030 nM. Against the preceding compound, the IC50 is about 12-fold lower.

The compound `Cc1nc2c(C(=O)Nc3ccc4c(c3)CNC4)cccc2[nH]1` registered an IC50 of 3630 nM.

Consider `O=C(Nc1ccc2c(c1)CNC2)c1cc(Br)cc2[nH]c(=O)[nH]c12`, for which the IC50 was 27 nM and 25 nM.

As to `O=C(Nc1ccc2c(c1)CNC2)c1ccc2sncc2c1`, half-maximal inhibition (IC50) was put at 16000 nM.

In turn, `O=C(NCCCn1ccnc1)[C@H](Nc1ccc2c(c1)CNC2)c1cc(Cl)cc(C2CC2)c1` returned an IC50 of 124 nM.

Turning to `O=C(Nc1ccc2c(c1)CNC2)c1cc(Cl)ccc1-n1cncn1`, half-maximal inhibition (IC50) required 876 nM.

Regarding `CC(C)c1nccn1C[C@H]1CCCN1C(=O)Nc1ccc2c(c1)CNC2`, the IC50 is above 25000 nM.

`O=C1COc2c(cccc2C(=O)Nc2ccc3c(c2)CNC3)N1`: the IC50 is 1220 nM.

For `Cc1c(C(=O)Nc2cc(-c3cccnc3)ccn2)cc(C2CC2)n1C`, the IC50 is 5840 nM and > 25000 nM.

The compound `O=C(Nc1ccc2c(c1)CNC2)c1cccc2ccncc12` showed an IC50 of 382 nM.

`O=C(Nc1ccc2c(c1)CNC2)c1cc(Cl)nc2[nH]ccc12` showed an IC50 of 2240 nM.

As to `Cc1nc2c(C(=O)Nc3ccc4c(c3)CNC4)cc(Cl)cc2[nH]1`, it took 117 nM to reach half-maximal inhibition (IC50).

`N#C[C@H](Nc1ccc2c(c1)CNC2)c1cncc2ccccc12` returned a half-maximal inhibitory concentration (IC50) of 3870 nM. This IC50 lies about 33-fold higher than the previous one.

The compound `O=C(Nc1ccc2c(c1)CNC2)c1ccc2nc(O)sc2c1` showed an IC50 above 25000 nM.

Compound `CC1CCN(CC[C@H]2CCCN2C(=O)Nc2ccc3c(c2)CNC3)CC1` gave an IC50 above 25000 nM.

In the case of `CCSc1ccc(Cl)cc1C(=O)Nc1ccc2c(c1)CNC2`, half-maximal inhibition (IC50) required 706 nM.

With `O=C(Nc1ccc2c(c1)CNC2)c1cc2ncccc2s1`, the IC50 is above 25000 nM.

`N#Cc1ccc(C(=O)Nc2ccc3c(c2)CNC3)cc1Cl` had an IC50 of 11400 nM.

In turn, `CC(C)(C)OC(=O)N1Cc2cc(NC(=O)c3cc(Cl)cc4[nH]ncc34)cc(Br)c2C1` returned an IC50 of 16400 nM.

For `COC(=O)C(C)(C)NC(=O)[C@H](Nc1ccc2c(c1)CNC2)c1cc(Cl)cc(C2CC2)c1`, the IC50 is 8990 nM. This IC50 lies about 1.8-fold lower than the previous one.

In turn, `O=C(Nc1ccc2c(c1)CNC2)c1nc(Cl)nc2[nH]ccc12` yielded an IC50 above 25000 nM.

The compound `Cc1[nH]c2ccccc2c1[C@H]1CCN(C(=O)Nc2ccc3c(c2)CNC3)C1` registered an IC50 above 25000 nM.

Compound `O=C1COc2cc(C(=O)Nc3ccc4c(c3)CNC4)ccc2N1` had an IC50 of 6140 nM.

`O=C(Nc1ccc2c(c1)CNC2)c1cc(C(F)(F)F)nc2[nH]ccc12`: half-maximal inhibition (IC50) required 7320 nM.

For `CC1=CC[C@H](c2cccc(-c3nn[nH]n3)c2)Nc2cc(Cl)ccc21`, the IC50 is above 25000 nM.

In turn, `Cc1cc(C)n([C@H]2CCCN(C(=O)Nc3ccc4c(c3)CNC4)C2)n1` returned an IC50 above 25000 nM.

For `O=C(Nc1ccc2c(c1)CNC2)c1ccc(-c2cncs2)cc1`, the IC50 was above 25000 nM.

In turn, `O=C(Nc1ccc2c(c1)CNC2)c1ncc(Cc2ccccc2)s1` had an IC50 above 25000 nM.

`CCOC(=O)c1ncoc1CNC(=O)[C@H](Nc1ccc2c(c1)CNC2)c1cc(Cl)cc(C2CC2)c1`: the IC50 came out at 297 nM.

`O=C(NC1CCOCC1)[C@H](Nc1ccc2c(c1)CNC2)c1cc(Cl)cc2[nH]ncc12`: the IC50 is 30 nM and 21 nM.

Compound `O=C(Nc1ccc2c(c1)CNC2)c1cccc2sccc12` gave an IC50 of 456 nM.

`O=C(Nc1ccc2c(c1)CNC2)c1cncc2[nH]ncc12` registered an IC50 of 443 nM.

As to `O=C(Nc1ccc2c(c1)CNC2)N1CCC[C@H]1c1cc(C(F)(F)F)no1`, the concentration for half-maximal inhibition (IC50) was above 25000 nM.

Consider `O=C(Nc1ccc2c(c1)CNC2)c1ccc2[nH]cnc2c1`, for which 2950 nM corresponded to half-maximal inhibition (IC50).

`O=C(Nc1ccc2c(c1)CNC2)c1cc(F)c2[nH]ccc2c1`: inhibition was half-maximal at 274 nM (IC50). This IC50 is about 11-fold lower than that of the compound before.

In the case of `O=C(Nc1ccc2c(c1)CNC2)c1ccnc2[nH]ccc12`, the IC50 is 21100 nM.

In turn, `O=C(Nc1ccc2c(c1)CNC2)c1ccc2cc[nH]c2c1` returned an IC50 above 25000 nM.

As to `NCc1cc(C=C2CC(C(=O)O)C2)cc(NC(=O)c2cc(Cl)cc(NC(=O)OCc3ccccc3)c2)c1` (configuration not stated), 9310 nM corresponded to half-maximal inhibition (IC50).

As to `O=C(Nc1ccc2c(c1)CNC2)c1cccc2[nH]c(=O)[nH]c12`, the IC50 was 68 nM and 64 nM.

For `CC[C@H]1CN(C(=O)Nc2ccc3c(c2)CNC3)C[C@@H]1c1ccc(OC)cc1`, the IC50 is above 25000 nM.

As for `O=C(Nc1ccc2c(c1)CNC2)c1ccc(OC(F)(F)F)cc1`, the IC50 was above 25000 nM.

With `O=C(Nc1ccc2c(c1)CNC2)c1ncnc2[nH]ccc12`, the IC50 is above 25000 nM.

With `NCc1cc(Cl)cc(C(=O)Nc2ccc3c(c2)C(=O)OC3)c1`, the IC50 is above 25000 nM.

`O=C(Nc1ccc2c(c1)CNC2)c1cc(Cl)cc2[nH]c(-c3ncnn3C3CC3)nc12` came in with a half-inhibitory concentration (IC50) of 312 nM.

Regarding `O=C(Nc1ccc2c(c1)CNC2)c1c(Cl)ccc2c1OCO2`, the IC50 is above 25000 nM.

In the case of `O=C(Nc1ccc2c(c1)CNC2)c1cccc2nc(C(F)(F)F)[nH]c12`, the IC50 came to 4030 nM. This lies in the single-digit micromolar range.

As to `CC(C)CNC(=O)[C@H](Nc1ccc2c(c1)CNC2)c1cc(Cl)cc2[nH]ncc12`, the IC50 was 75 nM and 54 nM.

Compound `CC(=O)Nc1cccc(C(=O)Nc2ccc3c(c2)CNC3)n1` yielded an IC50 above 25000 nM.

In turn, `NCCCc1ccnc(NC(=O)c2cc(C3CC3)[nH]n2)c1` showed an IC50 above 25000 nM.

Compound `CC(C)(C)NC(=O)[C@H](Nc1ccc2c(c1)CNC2)c1cc(Cl)cc(C2CC2)c1` displayed an IC50 of 4690 nM. That is a single-digit micromolar value.

For the compound `CCc1cnccc1-c1nc2c(C(=O)Nc3ccc4c(c3)CNC4)cc(Cl)cc2[nH]1`, the IC50 was 364 nM.

Regarding `CCOCCNC(=O)[C@H](Nc1ccc2c(c1)CNC2)c1cc(Cl)cc2[nH]ncc12`, the IC50 was 60 nM and 42 nM.

As to `O=C(Nc1ccc2c(c1)CNC2)c1cccc2ncccc12`, the IC50 came out at 3400 nM.

In turn, `O=C(Nc1ccc2c(c1)CNC2)N1CCC[C@H](Cc2nccs2)C1` showed an IC50 above 25000 nM.

Compound `O=C1CC[C@H]2[C@H](CCN2C(=O)c2ccc3c(c2)CNC3)N1` came in with an IC50 above 25000 nM.

Turning to `CCCNC(=O)[C@H](Nc1ccc2c(c1)CNC2)c1cc(Cl)cc2[nH]ncc12`, the IC50 is 36 nM and 31 nM.

`CC1(C)C(=O)Nc2ccc(C(=O)Nc3ccc4c(c3)CNC4)cc21` came in with an IC50 of 7490 nM.

Regarding `O=C(NCc1cccnc1)[C@H](Nc1ccc2c(c1)CNC2)c1cc(Cl)cc2[nH]ncc12`, half-maximal inhibition (IC50) required 122 nM.

The compound `O=C(Nc1ccc2c(c1)CNC2)c1ccc2ncccc2c1` gave an IC50 above 25000 nM.

With `O=C(Nc1ccc2c(c1)CNC2)c1ccc2ncsc2c1`, the IC50 is 997 nM.

The compound `O=C1Cc2c(cccc2C(=O)Nc2ccc3c(c2)CNCCC3)N1` registered an IC50 of 569 nM.

In turn, `CNC(=O)[C@H](Nc1ccc2c(c1)C(=O)OC2)c1cc(Cl)cc2[nH]ncc12` gave an IC50 above 25000 nM.

As to `O=C(Nc1ccc2c(c1)CNC2)c1cc(Cl)cc2[nH]c(C3(n4ccnn4)CC3)nc12`, 765 nM corresponded to half-maximal inhibition (IC50). That is a sub-micromolar value.

In turn, `O=C(Nc1ccc2c(c1)CNC2)c1cccc2[nH]cnc12` registered an IC50 of 2810 nM.

As to `O=C(Nc1ccc2c(c1)CNC2)c1ccc2[nH]ccc2c1`, the IC50 was 1670 nM and 2500 nM.

Compound `C[C@H](C1CC1)n1ncc2c(C(=O)Nc3ccc4c(c3)CNC4)cc(C3CC3)nc21` showed an IC50 of 8050 nM. In other words, the single-digit micromolar range.

`Cn1cc2c(C(=O)Nc3ccc4c(c3)CNC4)cccc2n1` registered an IC50 of 1130 nM.

Consider `Cc1csc(CO[C@H]2CCN(C(=O)Nc3ccc4c(c3)CNC4)C2)n1`, for which the IC50 was above 25000 nM.
